The record followed here is patent US8835634B2, “Quinoxalinone derivatives as insulin secretion stimulators, methods for obtaining them and use thereof for the treatment of diabetes” (Merck Patent GmbH, priority 2008, dated 2014).

What is called melting point is the temperature of the solid-liquid transition.

The subject of one data set is INS-1 cells. The experiment in a line: Insulin secretion assay in INS-1 cells (glucose at 4.2 mM). The note with it: glucose 4.2 mM, 1 h incubation, control = glucose 4.2 mM; for Insulin secretion, % of ctrl at 10 μM of cpd: 10 μM compound; for Insulin secretion, % of ctrl at 50 μM of cpd: 50 μM compound. In kind it is cell-based, rat. The procedure: Culture of Pancreatic INS-1 Cells
INS-1 cells were cultured in complete medium, RPMI1640 containing 1 mM sodium pyruvate, 50 μM 2-mercaptoethanol, 2 mM glutamine, 10 mM HEPES, 100 IU/mL penicillin, and 100 μg/mL streptomycin (CM), supplemented with 10 mM glucose, and 10% (vol/vol) heat-inactivated fetal calf serum (FCS), as described by Asfari et al. (Endocrinology 130: 167-178, 1992).
INS-1 cells were plated and cultured in 48-well plates. After 2 days of culture, the medium was removed and cells were cultured for 24 h with a medium change to 5 mM glucose, 1% FCS. The cells were then washed with Krebs-Ringer Bicarbonate HEPES buffer (KRBH; 135 mM NaCl; 3.6 mM KCl; 5 mM NaHCO3; 0.5 mM NaH2PO4; 0.5 mM MgCl2; 1.5 mM CaCl2 and 10 mM HEPES; pH 7.4) 0.1% BSA containing 2.8 mM glucose and preincubated for 30 min at 37° C. in the same buffer. The cells were then washed twice and incubated for 1 h in KRBH 0.1% BSA containing 4.2 mM glucose and different concentrations of the tested molecule. Insulin concentration in the collected supernatants was measured with ELISA using rat insulin antibody (Insulin Rat Elit PLUS, cat. ref 10-1145-01).
Insulin secretion results are expressed in % of control (glucose 4.2 mM).
Insulin Secretion in INS-1 Cells (Glucose at 4.2 mM)

Data set [1] deals with diabetic N0STZ rat islets. The experiment in a line: Insulin secretion in diabetic N0STZ rat islets. It counts as cell-based. The settings on record: 90 min, Means±SEM. The procedure: Insulin Secretion in Diabetic N0STZ Rat Islets. Materials and Methods. Islets Isolation and Treatments.
14±3 weeks non-fasted N0STZ (PORTHA et al., 1974) male rats (Charles Rivers-Domaine des Oncins, I'Arbresle, France) were anesthetised with sodium pentobarbital (Nembutal®: 45 mg/kg in 5 ml/kg administered intra peritoneally) and body temperature was maintained with a heat lamp.
Rat pancreatic islets of Langerhans were isolated from the pancreas of 8 rats by collagenase P (Boehringer, Meylan, France) digestion. Islets were purified by sedimentation in Hanks balanced salt solution [NaCl (137 mM); KCl (5.36 mM); MgSO4, 7 H2O (0.81 mM); Na2HPO4, 12 H2O (0.34 mM); KH2PO4 (0.44 mM); CaCl2, 2 H2O (1.26 mM); NaHCO3 (4.17 mM)] followed by Ficoll gradient separation. Islets were then hand-picked under stereoscopic microscope and batches of 3 islets were incubated for 90 minutes at 37° C. with continuous shaking under a humidified condition (95% O2, 5% CO2) in 1 ml of Krebs/Hepes pH 7 solution [NaCl (115 mM), NaHCO3 (24 mM), KCl (5 mM), MgCl2 (1 mM), CaCl2, 2 H2O (1 mM), 0.2% of Bovine serum albumin (Fraction V, fatty acid free, Boehringer, Mannheim), 10 mM Hepes] containing the required glucose or compound concentration. Compounds were dissolved in DMSO at 2.10-2M stock solutions. They were then diluted at the required concentration in Krebs/Hepes buffer containing the required glucose concentration.
At the end of incubation, media was collected and insulin levels were measured using ELISA (EUROBIO, Courtaboeuf, France).
Islets were hand-picked and incubated in the presence of increasing concentrations of compounds in the presence of glucose at 2.8 or 8 mM. At the end of incubation, media was collected and insulin levels were measured using ELISA method. Results are expressed as % of glucose control (2.8 or 8 mM) and represent Means±SEM.

[2] abbreviates: glucose 2.8 mM, compound 10−4 M.

The molecule `CCCCn1c(=O)c(-c2ccccc2)nc2ccccc21` [Example 3-16, 1-butyl-3-phenyl-quinoxalin-2(1H)-one] yielded a melting point of 40 to 43 °C.
In the case of `CCn1c(=O)c(-c2ccc(F)cc2C)nc2ccccc21` [Example 6-5, 1-ethyl-3-(4-fluoro-2-methylphenyl)quinoxalin-2(1H)-one], in the data set with INS-1 cells, the “Insulin secretion, % of ctrl at 10 μM of cpd” value is 287 % of ctrl and the “Insulin secretion, % of ctrl at 50 μM of cpd” value was 325 % of ctrl.
For the molecule `O=c1c(-c2ccc(Cl)cc2)nc2ccccc2n1C1CC1` [Example 3-3, 3-(4-chlorophenyl)-1-cyclopropyl-quinoxalin-2(1H)-one], the melting point was 102 to 105 °C.
Same read-out and setting: the value for `O=c1c(-c2ccc(F)cc2)nc2ccccc2n1CC(F)F` [Example 3-34, 1-(2,2-difluoroethyl)-3-(4-fluorophenyl)quinoxalin-2(1H)-one] was 151 to 154 °C.
For the molecule `O=c1c(-c2ccccc2)nc2ccccc2n1C1CC1` [Example 3-11, 1-cyclopropyl-3-phenylquinoxalin-2(1H)-one], the melting point lay within 102 to 105 °C. Besides, in the data set with INS-1 cells, the “Insulin secretion, % of ctrl at 10 μM of cpd” value was 371 % of ctrl and the “Insulin secretion, % of ctrl at 50 μM of cpd” value was 468 % of ctrl.
In turn, `CCc1nc2ccccc2n(C2CC2)c1=O` [Example 3-33, 1-cyclopropyl-3-ethylquinoxalin-2(1H)-one] yielded a melting point of 77 to 80 °C.
`CCc1nc2cc(F)c(F)cc2n(CC)c1=O` [Example 3-24, 1,3-diethyl-6,7-difluoro-quinoxalin-2(1H)-one] displayed a melting point of 117 to 119 °C.
On the same count and under the same terms, then `O=c1c(-c2ccc(F)cc2)nc2ccccc2n1C1CC1` [Example 3-14, 1-cyclopropyl-3-(4-fluorophenyl)quinoxalin-2(1H)-one], with 179 to 182 °C; and `CCCc1nc2ccccc2n(C2CC2)c1=O` [Example 3-32, 1-cyclopropyl-3-propylquinoxalin-2(1H)-one], with 72 to 75 °C.
Turning to `CCn1c(=O)c(-c2ccc(F)cc2)nc2ccccc21` [Example 6-3, 1-ethyl-3-(4-fluorophenyl)quinoxalin-2(1H)-one], the melting point was 110 to 115 °C. In addition, in the data set with INS-1 cells, the “Insulin secretion, % of ctrl at 10 μM of cpd” value is 316 % of ctrl and the “Insulin secretion, % of ctrl at 50 μM of cpd” value is 423 % of ctrl. Moreover, the “Insulin secretion, % of glucose control” value in data set [1] (setting [2]) is on record as 114 ± 17 % of glucose control. Moreover, the “Insulin secretion, % of glucose control” value in data set [1] (glucose 8 mM, compound 10−4 M) is reported as 440 ± 8 % of glucose control. Further, in data set [1] (glucose 8 mM, compound 10−5 M), the “Insulin secretion, % of glucose control” value is 168 ± 9 % of glucose control. Besides, in data set [1] (glucose 8 mM, compound 10−6 M), the “Insulin secretion, % of glucose control” value is reported as 135 ± 11 % of glucose control. The “Insulin secretion, % of glucose control” value in data set [1] (glucose 8 mM, compound 10−7 M) was 133 ± 8 % of glucose control.
On to `CCn1c(=O)c(-c2ccc(F)cc2)nc2cc(F)c(F)cc21` [Example 3-9, 1-ethyl-6,7-difluoro-3-(4-fluorophenyl)quinoxalin-2(1H)-one], for which the melting point was 116 to 118 °C.
In the case of `CCn1c(=O)c(-c2ccc(C(F)(F)F)cc2)nc2ccccc21` [Example 6-7, 1-ethyl-3-(4-trifluoromethylphenyl)quinoxalin-2(1H)-one], in the data set on INS-1 cells, the “Insulin secretion, % of ctrl at 10 μM of cpd” value is on record as 221 % of ctrl and the “Insulin secretion, % of ctrl at 50 μM of cpd” value is 466 % of ctrl.
`CCn1c(=O)c(-c2ccc(Cl)cc2)nc2ccccc21` [Example 6, 3(4-chlorophenyl)-1-ethyl-quinoxalin-2(1H)-one] registered a melting point of 138 to 140 °C. In the data set with INS-1 cells, the “Insulin secretion, % of ctrl at 10 μM of cpd” value is 325 % of ctrl and the “Insulin secretion, % of ctrl at 50 μM of cpd” value is 495 % of ctrl. Also, the “Insulin secretion, % of glucose control” value in data set [1] (setting [2]) was 94 ± 17 % of glucose control. In addition, the “Insulin secretion, % of glucose control” value in data set [1] (glucose 8 mM, compound 10−4 M) was 413 ± 7 % of glucose control. Also, in data set [1] (glucose 8 mM, compound 10−5 M), the “Insulin secretion, % of glucose control” value is 226 ± 12 % of glucose control. The “Insulin secretion, % of glucose control” value in data set [1] (glucose 8 mM, compound 10−6 M) was 124 ± 8 % of glucose control. Besides, the “Insulin secretion, % of glucose control” value in data set [1] (glucose 8 mM, compound 10−7 M) is recorded as 126 ± 9 % of glucose control.
Take `O=c1c(-c2ccccc2)nc2ccccc2n1CC(F)F` [Example 3, 1-(2,2-difluoroethyl)-3-phenyl-quinoxalin-2(1H)-one]: the melting point was 85 to 88 °C.
On to `CCn1c(=O)c(-c2ccc(C)cc2)nc2ccccc21` [Example 6-4, 1-ethyl-3-(4-methylphenyl)quinoxalin-2(1H)-one], for which, in the data set on INS-1 cells, the “Insulin secretion, % of ctrl at 10 μM of cpd” value is given as 305 % of ctrl and the “Insulin secretion, % of ctrl at 50 μM of cpd” value is listed as 391 % of ctrl.
`CCCCn1c(=O)c(CC)nc2ccccc21` [Example 3-29, 1-butyl-3-ethylquinoxalin-2(1H)-one] registered a melting point of 48 to 51 °C.
`O=c1c(-c2ccc(Cl)cc2)nc2ccccc2n1CC(F)F` [Example 3-2, 3-(4-chlorophenyl)-1-(2,2-difluoroethyl)quinoxalin-2(1H)-one]: the melting point was 133 to 136 °C. Moreover, in the data set on INS-1 cells, the “Insulin secretion, % of ctrl at 10 μM of cpd” value is 540 % of ctrl and the “Insulin secretion, % of ctrl at 50 μM of cpd” value is reported as 666 % of ctrl.
`CCn1c(=O)c(-c2ccc(Cl)cc2)nc2cc(F)c(F)cc21` [Example 3-10, 1-ethyl-6,7-difluoro-3-(4-chlorophenyl)quinoxalin-2(1H)-one] gave a melting point of 135 to 137 °C.
